Read-outs that look alike come from different tables or passages of the source.

Here are results for nine compounds from patent US5162320A, “1,4-bis(alkylamino)-2,3-diaza-anthracene-9,10-diones” (Boehringer Biochemia Robin S.p.A., priority 1989, dated 1992).

Data set [1] deals with human melanoma xenographt. Kind of data set: M.T.T. assay in vitro, human melanoma. It is filed as cell-based. As to the method: (§1) The antitumor activity of compounds of the present invention was evaluated by "in vitro" M.T.T. assay (T. Mosmann, J. Immunol. Meth. 65 : 55-63, 1983) on human tumor cell lines. M.T.T. assay was chosen according to N.C.I. screening program for new anticancer drugs (Ad hoc review committee proceedings for N.C.I. "in vitro"--"in vivo" Disease oriented Screening project. N.I.H., Bethesda, Md. Dec.8-9, 1986).

The test system of data set [2] is human colon adenocarcinoma. Kind of data set: M.T.T. assay in vitro, human colon adenocarcinoma. The conditions noted are these: human colon adenocarcinoma xenographt, read-out: ID50 (the source's name). It is filed as cell-based. As to the method: as §1
In data set [3] the test system is human cervix epithelioid carcinoma cell line. Description: M.T.T. assay in vitro, human cervix epithelioid carcinoma. Type of data set: cell-based. On the procedure:
as §1
Against the same human cervix epithelioid carcinoma cell line the compounds (1) and (2) show ID50 of 1×10^-9 M and 2×10^-10 M, respectively.

The conditions of data set [4]: human, in vivo; cited from earlier work.
For data set [5] the following is noted: intraperitoneal, non-tumor bearing animals; cited from earlier work.
The mark [6] stands for this setting: human melanoma xenographt, M.T.T. assay, read-out: ID50 (the source's name).
The mark [7] stands for this setting: human cervix epithelioid carcinoma, in vitro, read-out: ID50 (the source's name).
The mark [8] stands for this setting: human cervix epithelioid carcinoma.

For `OCCCNc1nnc(NCCCO)c2cc3ccccc3cc12` [1,4-bis[N-(3-hydroxypropyl)amino]-2,3-diaza-anthracene], the IC50 in data set [1] (setting [6]) amounted to 500000 nM.
Consider `CN(C)CCNc1nnc(NCCN(C)C)c2c1C(=O)c1ccccc1C2=O` [Compound 1, 1,4-bis[N-(2-dimethylaminoethyl)amino]-2,3-diaza-anthracene-9,10-dione], for which the results for the IC50 in data set [2], in data set [1] (setting [6]) and in data set [3] (setting [7]) were 10 nM, 1 nM and 1 nM, respectively.
With `CN(C)CCNc1nnc(N)c2c1C(=O)c1ccccc1C2=O` [Compound 2, 1-[N-(2-dimethylaminoethyl)amino]-4-amino-2,3-diaza-anthracene9,10-dione], the IC50 came out at 1 nM in data set [2], 0.1 nM in data set [1] (setting [6]) and 0.2 nM in data set [3] (setting [7]).
With `O=C1c2ccccc2C(=O)c2c(NCCCO)nnc(NCCCO)c21` [Compound 3, 1,4-bis[N-(3-hydroxypropyl)amino]-2,3-diaza-anthracene-9,10-dione], the IC50 in data set [1] (setting [6]) is 2 nM.
`Nc1nnc(NCCCO)c2c1C(=O)c1ccccc1C2=O` [Compound 4, 1-[N-(3-hydroxypropyl)amino]-4-amino-2,3-diaza-anthracene-9,10-dione]: the IC50 in data set [1] (setting [6]) was 1 nM.
Regarding `Nc1nnc(NCCNCCO)c2c1C(=O)c1ccccc1C2=O` [Compound 5, 1-[N-(2-(2-hydroxyethylamino)ethyl)amino]-4-amino-2,3-diaza-anthracene-9,10-dione], in data set [3] (setting [8]), the “activity compared with ametantrone” value is “definitely more active than ametantrone” and the “activity compared with mitoxantrone” value is “as active as mitoxantrone”. Besides, the IC50 in data set [3] (setting [7]) came to 3 nM.
`O=C1c2ccccc2C(=O)c2c(NCCNCCO)ccc(NCCNCCO)c21` [ametantrone, 1,4-bis[(2-(2-hydroxyethylamino)ethyl)amino]anthracene-9,10-dione]: the IC50 stood at 20000 nM in data set [1] (Homo sapiens, read-out: ID50) and 50000 nM in data set [3] (Homo sapiens, read-out: ID50). Besides, in data set [4], the cardiotoxicity result was “some cardiotoxicity”. Further, the delayed lethality entry in data set [5] is recorded as “not observed”.
Consider `COc1cccc2c1C(=O)c1c(O)c3c(c(O)c1C2=O)C[C@@](O)(C(=O)CO)C[C@@H]3O[C@H]1C[C@H](N)[C@H](O)[C@H](C)O1` [doxorubicin], for which, in data set [4], the cardiotoxicity result is on record as “severe dose-related cardiotoxicity”; the toxic side effects entry is “nausea, vomiting and alopecia”.
On to `O=C1c2c(O)ccc(O)c2C(=O)c2c(NCCNCCO)ccc(NCCNCCO)c21` [mitoxantrone, 5,8-dihydroxy-1,4-bis[(2-(2-hydroxyethylamino)ethyl)amino]anthracene-9,10-dione], for which, in data set [2], the IC50 was determined as 100 nM. In addition, in data set [1] (setting [6]), the IC50 was 1 nM. Moreover, the IC50 in data set [3] (setting [7]) amounted to 5 nM. In data set [4], the cardiotoxicity entry was “some clinical cardiotoxicity”; the major hematological toxicities entry was “leukopenia, neutropenia and bone marrow aplasia”; the toxic side effects result is reported as “by far lower than those resulting from doxorubicin”. The delayed lethality result in data set [5] is “a delayed lethality”.
